{"source": "PubChem BioAssay AID1259407", "about": "(Chemical Carcinogenesis Research Information System (CCRIS), 2018)", "test_system": "CCRIS mutagenicity, Ames/micronucleus/aberration tests", "assay": "CCRIS mutagenicity studies", "key": {"[1]": {"conditions": "Test System: AMES SALMONELLA TYPHIMURIUM, Strain/Indicator: TA98, Metabolic Activation: HAMSTER, LIVER, S-9, AROCLOR 1254 (10%), Method: PREINCUBATION"}, "[2]": {"conditions": "Test System: AMES SALMONELLA TYPHIMURIUM, Strain/Indicator: TA98, Metabolic Activation: NONE, Method: PREINCUBATION"}, "[3]": {"conditions": "Test System: AMES SALMONELLA TYPHIMURIUM, Strain/Indicator: TA98, Metabolic Activation: RAT, LIVER, S-9, AROCLOR 1254 (10%), Method: PREINCUBATION"}, "[4]": {"conditions": "Test System: AMES SALMONELLA TYPHIMURIUM, Strain/Indicator: TA100, Metabolic Activation: HAMSTER, LIVER, S-9, AROCLOR 1254 (10%), Method: PREINCUBATION"}, "[5]": {"conditions": "Test System: AMES SALMONELLA TYPHIMURIUM, Strain/Indicator: TA100, Metabolic Activation: NONE, Method: PREINCUBATION"}, "[6]": {"conditions": "Test System: AMES SALMONELLA TYPHIMURIUM, Strain/Indicator: TA100, Metabolic Activation: RAT, LIVER, S-9, AROCLOR 1254 (10%), Method: PREINCUBATION"}, "[7]": {"conditions": "Test System: AMES SALMONELLA TYPHIMURIUM, Strain/Indicator: TA1535, Metabolic Activation: HAMSTER, LIVER, S-9, AROCLOR 1254 (10%), Method: PREINCUBATION"}, "[8]": {"conditions": "Test System: AMES SALMONELLA TYPHIMURIUM, Strain/Indicator: TA1535, Metabolic Activation: NONE, Method: PREINCUBATION"}, "[9]": {"conditions": "Test System: AMES SALMONELLA TYPHIMURIUM, Strain/Indicator: TA1535, Metabolic Activation: RAT, LIVER, S-9, AROCLOR 1254 (10%), Method: PREINCUBATION"}, "[10]": {"conditions": "Test System: AMES SALMONELLA TYPHIMURIUM, Strain/Indicator: TA1537, Metabolic Activation: HAMSTER, LIVER, S-9, AROCLOR 1254 (10%), Method: PREINCUBATION"}, "[11]": {"conditions": "Test System: AMES SALMONELLA TYPHIMURIUM, Strain/Indicator: TA1537, Metabolic Activation: NONE, Method: PREINCUBATION"}, "[12]": {"conditions": "Test System: AMES SALMONELLA TYPHIMURIUM, Strain/Indicator: TA1537, Metabolic Activation: RAT, LIVER, S-9, AROCLOR 1254 (10%), Method: PREINCUBATION"}}, "note": "Calls of active or inactive are those of the source. The rule behind the calls is not given here.", "data": [{"molecule": "CC(C)CNCC(C)C", "values": [{"measurement": "mutagenic call", "setting": "[1]", "result": "inactive; negative"}, {"measurement": "mutagenic call", "setting": "[2]", "result": "inactive; negative"}, {"measurement": "mutagenic call", "setting": "[3]", "result": "inactive; negative"}, {"measurement": "mutagenic call", "setting": "[4]", "result": "inactive; negative"}, {"measurement": "mutagenic call", "setting": "[5]", "result": "inactive; negative"}, {"measurement": "mutagenic call", "setting": "[6]", "result": "inactive; negative"}, {"measurement": "mutagenic call", "setting": "[7]", "result": "inactive; negative"}, {"measurement": "mutagenic call", "setting": "[8]", "result": "inactive; negative"}, {"measurement": "mutagenic call", "setting": "[9]", "result": "inactive; negative"}, {"measurement": "mutagenic call", "setting": "[10]", "result": "inactive; negative"}, {"measurement": "mutagenic call", "setting": "[11]", "result": "inactive; negative"}, {"measurement": "mutagenic call", "setting": "[12]", "result": "inactive; negative"}]}, {"molecule": "CCOC(=O)CC(=O)OCC", "values": [{"measurement": "mutagenic call", "setting": "Test System: Ames Salmonella typhimurium, Strain/Indicator: TA98, Metabolic Activation: None, Method: Preincubation", "result": "inactive; negative"}, {"measurement": "mutagenic call", "setting": "Test System: Ames Salmonella typhimurium, Strain/Indicator: TA98, Metabolic Activation: Rat, Liver, S-9, Phenobarbital and 5,6-benzoflavone, Method: Preincubation", "result": "inactive; negative"}, {"measurement": "mutagenic call", "setting": "Test System: Ames Salmonella typhimurium, Strain/Indicator: TA100, Metabolic Activation: None, Method: Preincubation", "result": "inactive; negative"}, {"measurement": "mutagenic call", "setting": "Test System: Ames Salmonella typhimurium, Strain/Indicator: TA100, Metabolic Activation: Rat, Liver, S-9, Phenobarbital and 5,6-benzoflavone, Method: Preincubation", "result": "inactive; negative"}, {"measurement": "mutagenic call", "setting": "Test System: Ames Salmonella typhimurium, Strain/Indicator: TA1535, Metabolic Activation: None, Method: Preincubation", "result": "inactive; negative"}, {"measurement": "mutagenic call", "setting": "Test System: Ames Salmonella typhimurium, Strain/Indicator: TA1535, Metabolic Activation: Rat, Liver, S-9, Phenobarbital and 5,6-benzoflavone, Method: Preincubation", "result": "inactive; negative"}, {"measurement": "mutagenic call", "setting": "Test System: Ames Salmonella typhimurium, Strain/Indicator: TA1537, Metabolic Activation: None, Method: Preincubation", "result": "inactive; negative"}, {"measurement": "mutagenic call", "setting": "Test System: Ames Salmonella typhimurium, Strain/Indicator: TA1537, Metabolic Activation: Rat, Liver, S-9, Phenobarbital and 5,6-benzoflavone, Method: Preincubation", "result": "inactive; negative"}, {"measurement": "mutagenic call", "setting": "Test System: E. coli, Strain/Indicator: WP2uvrA/pKM101, Metabolic Activation: None, Method: Preincubation", "result": "inactive; negative"}, {"measurement": "mutagenic call", "setting": "Test System: E. coli, Strain/Indicator: WP2uvrA/pKM101, Metabolic Activation: Rat, Liver, S-9, Phenobarbital and 5,6-benzoflavone, Method: Preincubation", "result": "inactive; negative"}]}, {"molecule": "Nc1c(Cl)cc([N+](=O)[O-])cc1Cl", "values": [{"measurement": "mutagenic call", "setting": "Test System: AMES SALMONELLA TYPHIMURIUM, Strain/Indicator: TA98, Metabolic Activation: HAMSTER, LIVER, S-9, AROCLOR 1254 (30%), Method: PREINCUBATION", "result": "active; positive"}, {"measurement": "mutagenic call", "setting": "[2]", "result": "active; positive"}, {"measurement": "mutagenic call", "setting": "Test System: AMES SALMONELLA TYPHIMURIUM, Strain/Indicator: TA98, Metabolic Activation: RAT, LIVER, S-9, AROCLOR 1254 (30%), Method: PREINCUBATION", "result": "active; positive"}, {"measurement": "mutagenic call", "setting": "Test System: AMES SALMONELLA TYPHIMURIUM, Strain/Indicator: TA100, Metabolic Activation: HAMSTER, LIVER, S-9, AROCLOR 1254 (30%), Method: PREINCUBATION", "result": "inactive; negative"}, {"measurement": "mutagenic call", "setting": "[5]", "result": "inactive; negative"}, {"measurement": "mutagenic call", "setting": "Test System: AMES SALMONELLA TYPHIMURIUM, Strain/Indicator: TA100, Metabolic Activation: RAT, LIVER, S-9, AROCLOR 1254 (30%), Method: PREINCUBATION", "result": "inactive; negative"}, {"measurement": "mutagenic call", "setting": "Test System: AMES SALMONELLA TYPHIMURIUM, Strain/Indicator: TA100, Metabolic Activation: RAT, LIVER, S-9, KANECHLOR 500, Method: PREINCUBATION", "result": "inactive; negative"}]}, {"molecule": "CC1CCC(NC(=O)N(CCCl)N=O)CC1", "note": "(stereo unspecified)", "values": [{"measurement": "mutagenic call", "setting": "Test System: AMES SALMONELLA TYPHIMURIUM, Strain/Indicator: G46, Metabolic Activation: NONE", "result": "active; positive"}, {"measurement": "mutagenic call", "setting": "Test System: AMES SALMONELLA TYPHIMURIUM, Strain/Indicator: TA100, Metabolic Activation: NONE, Method: STANDARD PLATE", "result": "active; positive"}, {"measurement": "mutagenic call", "setting": "Test System: AMES SALMONELLA TYPHIMURIUM, Strain/Indicator: TA100, Metabolic Activation: RAT, LIVER, S-9, AROCLOR 1254, Method: STANDARD PLATE", "result": "active; positive"}, {"measurement": "mutagenic call", "setting": "Test System: AMES SALMONELLA TYPHIMURIUM, Strain/Indicator: TA1535, Metabolic Activation: NONE", "result": "active; positive"}]}, {"molecule": "CCCCCCC[CH2][Sn]([Cl])([Cl])[CH2]CCCCCCC", "values": [{"measurement": "mutagenic call", "setting": "Test System: CHINESE HAMSTER V-79, Strain/Indicator: V-79/8-AZAGUANINE, Metabolic Activation: NONE", "result": "active; positive"}, {"measurement": "mutagenic call", "setting": "Test System: CHINESE HAMSTER V-79, Strain/Indicator: V-79/8-AZAGUANINE, Metabolic Activation: RAT HEPATOCYTES", "result": "inactive; negative"}]}, {"molecule": "CCOP(=O)(OCC)OCC", "values": [{"measurement": "mutagenic call", "setting": "[1]", "result": "inactive; negative"}, {"measurement": "mutagenic call", "setting": "[2]", "result": "inactive; negative"}, {"measurement": "mutagenic call", "setting": "[3]", "result": "inactive; negative"}, {"measurement": "mutagenic call", "setting": "[4]", "result": "inactive; negative"}, {"measurement": "mutagenic call", "setting": "[5]", "result": "inactive; negative"}, {"measurement": "mutagenic call", "setting": "[6]", "result": "inactive; negative"}, {"measurement": "mutagenic call", "setting": "Test System: AMES SALMONELLA TYPHIMURIUM, Strain/Indicator: TA102, Metabolic Activation: NONE, Method: STANDARD PLATE", "result": "inactive; negative"}, {"measurement": "mutagenic call", "setting": "[7]", "result": "inactive; negative"}, {"measurement": "mutagenic call", "setting": "[8]", "result": "inactive; negative"}, {"measurement": "mutagenic call", "setting": "[9]", "result": "inactive; negative"}, {"measurement": "mutagenic call", "setting": "[10]", "result": "inactive; negative"}, {"measurement": "mutagenic call", "setting": "[11]", "result": "inactive; negative"}, {"measurement": "mutagenic call", "setting": "[12]", "result": "inactive; negative"}, {"measurement": "mutagenic call", "setting": "Test System: AMES SALMONELLA TYPHIMURIUM, Strain/Indicator: TA2638, Metabolic Activation: NONE, Method: STANDARD PLATE", "result": "inactive; negative"}, {"measurement": "mutagenic call", "setting": "Test System: E. COLI, Strain/Indicator: WP2 (PKM101), Metabolic Activation: NONE, Method: STANDARD PLATE", "result": "inactive; negative"}, {"measurement": "mutagenic call", "setting": "Test System: E. COLI, Strain/Indicator: WP2 UVRA (PKM101), Metabolic Activation: NONE, Method: STANDARD PLATE", "result": "inactive; negative"}]}, {"molecule": "COC(=O)Nc1nc2ccc(S(=O)c3ccccc3)cc2[nH]1", "note": "(stereo unspecified)", "values": [{"measurement": "mutagenic call", "setting": "End Point: In vivo chromosomal aberrations, Test System: Bone marrow cells, Species: Mouse, Strain/Sex: Swiss /Female, Route: Oral", "result": "active; positive (structural changes and ploidy)"}, {"measurement": "mutagenic call", "setting": "End Point: In vivo chromosomal aberrations, Test System: Bone marrow cells, Species: Mouse, Strain/Sex: Swiss /Male, Route: Oral", "result": "active; positive (structural changes and ploidy)"}, {"measurement": "mutagenic call", "setting": "End Point: In vivo chromosomal aberrations, Test System: Spermatocytes, Species: Mouse, Strain/Sex: Swiss /Male, Route: Oral", "result": "active; positive (ploidy)"}]}, {"molecule": "CNCCS(=O)(=O)O", "values": [{"measurement": "mutagenic call", "setting": "[1]", "result": "inactive; negative"}, {"measurement": "mutagenic call", "setting": "[2]", "result": "inactive; negative"}, {"measurement": "mutagenic call", "setting": "[3]", "result": "inactive; negative"}, {"measurement": "mutagenic call", "setting": "[4]", "result": "inactive; negative"}, {"measurement": "mutagenic call", "setting": "[5]", "result": "inactive; negative"}, {"measurement": "mutagenic call", "setting": "[6]", "result": "inactive; negative"}, {"measurement": "mutagenic call", "setting": "[7]", "result": "inactive; negative"}, {"measurement": "mutagenic call", "setting": "[8]", "result": "inactive; negative"}, {"measurement": "mutagenic call", "setting": "[9]", "result": "inactive; negative"}, {"measurement": "mutagenic call", "setting": "[10]", "result": "inactive; negative"}, {"measurement": "mutagenic call", "setting": "[11]", "result": "inactive; negative"}, {"measurement": "mutagenic call", "setting": "[12]", "result": "inactive; negative"}]}]}
